Results reported in patent publication US12162867B2, “Inhibitors of RNA helicase DHX9 and uses thereof” (ACCENT THERAPEUTICS, INC., priority 2022, dated 2024).

test system: circBRIP1 in HCT116 cells; assay: DHX9 circBRIP1 cellular target engagement SYBR Green assay (qPCR); format: cell-based; conditions: Homo sapiens, HCT-116, circBRIP1, HCT116 cells; SyBr assay (marked ^+); read-out: DHX9 Cellular Target Engagement EC50

SMILES	EC50 [nM]
CS(=O)(=O)Nc1cc(Cl)cc(NC(=O)c2cnn(C3CC4CCC(C3)O4)c2)c1 (stereo not shown) [Example 250]	3550
CS(=O)(=O)Nc1cc(Br)cc(NC(=O)c2cnn(-c3ncccn3)c2)c1 [Example 50, N-(3-bromo-5-(methylsulfonamido)phenyl)-1-(pyrimidin-2-yl)-1H-pyrazole-4-carboxamide]	895
CC(C)(C)OC(=O)N1CCC(n2cc(C(=O)Nc3cc(Cl)cc(NS(C)(=O)=O)c3)cn2)CC1 [Example 136]	6410
Cc1cc(C)c2cc(C(=O)Nc3cc(Cl)cc(NS(C)(=O)=O)c3)cn2c1 [Example 328]	2670
CS(=O)(=O)Nc1cc(Cl)cc(NC(=O)c2cc3c(Cl)cccc3s2)c1 [Example 332]	3340
CS(=O)(=O)Nc1cc(Br)cc(NC(=O)c2cnn(-c3ccccc3CO)c2)c1 [Example 161, N-(3-bromo-5-(methylsulfonamido)phenyl)-1-(2-(hydroxymethyl)phenyl)-1H-pyrazole-4-carboxamide]	1420
CCS(=O)(=O)Nc1cc(Cl)cc(NC(=O)c2cc(-c3ncc(F)cc3C)cs2)c1 [Example 226]	388
Cc1sc(C(=O)Nc2cc(Cl)cc(NS(C)(=O)=O)c2)cc1-c1cn(-c2ccccc2)nn1 [Example 236]	106
CS(=O)(=O)Nc1cc(Cl)cc(NC(=O)c2cnn([C@H]3CC[C@@H](O)CC3)c2)c1 [Example 151, N-(3-chloro-5-(methylsulfonamido)phenyl)-1-((1s,4s)-4-hydroxycyclohexyl)-1H-pyrazole-4-carboxamide]	> 10000
CCS(=O)(=O)Nc1cc(F)cc(NC(=O)c2cc(-c3ccccn3)cs2)c1 [Example 113]	7440
Cc1cccc2cc(C(=O)Nc3cc(Cl)cc(NS(C)(=O)=O)c3)cn12 [Example 304]	5980
CS(=O)(=O)Nc1cc(Cl)cc(NC(=O)c2cnn(-c3ncccc3OCc3cn[nH]c3)c2)c1 [Example 206]	1060
COc1cccc2cc(C(=O)Nc3cc(Cl)cc(NS(C)(=O)=O)c3)sc12 [Example 303]	> 10000
CN(C)C(=O)N1CCN(c2ccc(-n3cc(C(=O)Nc4cc(Cl)cc(NS(C)(=O)=O)c4)cn3)nc2)CC1 [Example 89]	667
Cc1cnc(-n2cc(C(=O)Nc3cc(Cl)cc(NS(C)(=O)=O)c3)cn2)c(OCc2cnco2)c1 [Example 261]	1530
CS(=O)(=O)Nc1cc(Br)cc(NC(=O)c2cc(-c3ccccc3OCc3ccccc3)cs2)c1 [Example 30]	687
Cn1cc(C(=O)Nc2cc(Cl)cc(NS(C)(=O)=O)c2)cc1Br [Example 83, 5-bromo-N-(3-chloro-5-(methylsulfonamido)phenyl)-1-methyl-1H-pyrrole-3-carboxamide]	911
Cc1ccc(C#N)cc1-n1cc(C(=O)Nc2cc(Br)cc(NS(C)(=O)=O)c2)cn1 [Example 53]	4950

SMILES	EC50 [nM]
CS(=O)(=O)Nc1cc(Cl)cc(NC(=O)c2cc(-c3ncccc3Oc3cccnc3)cs2)c1 [Example 239]	348
CN1CCN(c2cnc(-n3cc(C(=O)Nc4cc(Cl)cc(NS(C)(=O)=O)c4)cn3)nc2)CC1=O [Example 183]	> 10000
CS(=O)(=O)Nc1cc(Cl)cc(NC(=O)c2cc(C(=O)Nc3ccccc3)cs2)c1 [Example 166, N2-(3-chloro-5-(methylsulfonamido)phenyl)-N4-phenylthiophene-2,4-dicarboxamide]	2390
CS(=O)(=O)Nc1cc(Cl)cc(NC(=O)c2cnn(-c3cnc(N4CCOCC4)cn3)c2)c1 [Example 388]	6530
Cc1cn2cc(C(=O)Nc3cc(Cl)cc(NS(C)(=O)=O)c3)cc2c(C)n1 [Example 322]	> 10000
CS(=O)(=O)Nc1cc(Cl)cc(NC(=O)c2cc3ccc(Cl)cc3s2)c1 [Example 293]	> 10000
Cc1cc(C(=O)Nc2cc(F)cc(NS(C)(=O)=O)c2)c[nH]1 [Example 5]	> 30000
CS(=O)(=O)Nc1cc(Br)cc(NC(=O)c2cccc(-n3cccn3)c2)c1 [Example 118]	2930
CC(=O)N1CCN(c2ccc(-n3cc(C(=O)Nc4cc(Br)cc(NS(C)(=O)=O)c4)cn3)nc2)CC1 [Example 86, 1-(5-(4-acetylpiperazin-1-yl)pyridin-2-yl)-N-(3-bromo-5-(methylsulfonamido)phenyl)-1H-pyrazole-4-carboxamide]	585
Cc1cc(C(=O)Nc2cc(Cl)cc(NS(C)(=O)=O)c2)cn1-c1ccc(N2CCCC2)cn1 [Example 270]	101
CS(=O)(=O)Nc1cc(Cl)cc(NC(=O)c2cc3cccnn3c2)c1 [Example 292]	2300
CS(=O)(=O)Nc1cc(Cl)cc(NC(=O)c2cc(-c3ccccc3)c[nH]2)c1 [Example 8]	5520
Cc1cccc(C#N)c1-n1cc(C(=O)Nc2cc(Br)cc(NS(C)(=O)=O)c2)cn1 [Example 44]	4190
Cc1cccnc1-c1cc(C(=O)Nc2cc(F)cc(NS(C)(=O)=O)c2)sc1C [Example 333]	421
CS(=O)(=O)Nc1cc(Cl)cc(NC(=O)c2cc(-c3ncccc3Cc3ncccn3)cs2)c1 [Example 384]	122
Cn1cc(C(=O)Nc2cc(Cl)cc(NS(C)(=O)=O)c2)nc1-c1ccccc1 [Example 155, N-(3-chloro-5-(methylsulfonamido)phenyl)-1-methyl-2-phenyl-1H-imidazole-4-carboxamide]	3610
CS(=O)(=O)Nc1cc(Cl)cc(NC(=O)c2cc(C(F)(F)F)n(-c3ccc(N4CCOCC4)cn3)c2)c1 [Example 271]	761

Other lines, results leading:

EC50 [nM]	SMILES
289	CN(c1ncccn1)c1cccnc1-c1csc(C(=O)Nc2cc(Cl)cc(NS(C)(=O)=O)c2)c1 [Example 238]
> 10000	CS(=O)(=O)Nc1cc(Cl)cc(NC(=O)c2cnn(-c3ccc(S(C)(=O)=O)cn3)c2)c1 [Example 198]
3680	CS(=O)(=O)Nc1cc(Cl)cc(NC(=O)c2cc(Br)cs2)c1 [Example 241]
2460	CC(=O)N1CCN(c2cnc(-n3cc(C(=O)Nc4cc(Br)cc(NS(C)(=O)=O)c4)cn3)c(C)c2)CC1 [Example 87]
265	CSc1cccnc1-n1cc(C(=O)Nc2cc(Cl)cc(NS(C)(=O)=O)c2)cn1 [Example 219]
> 10000	CS(=O)(=O)Nc1cc(Cl)cc(NC(=O)c2cnn(CCc3ccccc3)c2)c1 [Example 308]
> 10000	CP(C)(=O)c1cccnc1-n1cc(C(=O)Nc2cc(Cl)cc(NS(C)(=O)=O)c2)cn1 [Example 201]
2710	CCS(=O)(=O)Nc1cc(Cl)cc(NC(=O)c2cc(-c3cccnc3)cs2)c1 [Example 110]
3750	Cc1ccc2sc(C(=O)Nc3cc(Cl)cc(NS(C)(=O)=O)c3)cc2c1 [Example 331]
1200	CS(=O)(=O)Nc1cc(Cl)cc(NC(=O)c2cnn(-c3ccc(N4CCOCC4=O)cn3)c2)c1 [Example 180]
645	Cc1sc(C(=O)Nc2cc(Cl)cc(NS(C)(=O)=O)c2)cc1-c1cn(Cc2ccccc2)nn1 [Example 235]
> 10000	CS(=O)(=O)Nc1cc(Cl)cc(NC(=O)c2cnn(C3CC4(COC4)C3)c2)c1 [Example 128]
> 10000	CS(=O)(=O)Nc1cc(Br)cc(NC(=O)c2ccc3c(c2)[nH]c(=O)n3Cc2ccccc2)c1 [Example 99, 1-benzyl-N-(3-bromo-5-(methylsulfonamido)phenyl)-2-oxo-2,3-dihydro-1H-benzo[d]imidazole-5-carboxamide]
414	CS(=O)(=O)Nc1cc(Cl)cc(NC(=O)c2cc(-c3ccccc3O)cs2)c1 [Example 106]
241	COc1cccc2sc(C(=O)Nc3cc(Cl)cc(NS(C)(=O)=O)c3)cc12 [Example 321]
5850	CC(C)(C)OC(=O)N1CC2(CC(n3cc(C(=O)Nc4cc(Cl)cc(NS(C)(=O)=O)c4)cn3)C2)C1 [Example 144, tert-butyl 6-(4-((3-chloro-5-(methylsulfonamido)phenyl)carbamoyl)-1H-pyrazol-1-yl)-2-azaspiro[3.3]heptane-2-carboxylate]
30000	CS(=O)(=O)Nc1cc(Cl)cc(NC(=O)c2nc(-c3ccccc3)c[nH]2)c1 [Example 9]
1410	CS(=O)(=O)Nc1cc(Br)cc(NC(=O)c2cnn(-c3ccccc3C=O)c2)c1 [Example 58]
4340	CC(=O)N1CCN(c2ccnc(-n3cc(C(=O)Nc4cc(Cl)cc(NS(C)(=O)=O)c4)cn3)c2)CC1 [Example 148, 1-[4-(4-acetylpiperazin-1-yl)pyridin-2-yl]-N-(3-chloro-5-methanesulfonamidophenyl)-1H-pyrazole-4-carboxamide]
4980	Cc1cccn2cc(C(=O)Nc3cc(Cl)cc(NS(C)(=O)=O)c3)cc12 [Example 329]
> 10000	CS(=O)(=O)Nc1cc(Cl)cc(NC(=O)c2cc(C3CCNCC3)cs2)c1 [Example 243]

same assay, conditions: Homo sapiens, HCT-116, circBRIP1, HCT116 cells; ^+ SyBr assay was used; read-out: DHX9 Cellular Target Engagement EC50

SMILES	EC50 [nM]
Cc1cc(C(=O)Nc2cc(Cl)cc(NS(C)(=O)=O)c2)cn1-c1ncc([S+](C)[O-])cn1 (stereo not shown) [Example 657]	817
CS(=O)(=O)Nc1cc(Cl)cc(NC(=O)c2cc(C(=O)N3CCOCC3)n(-c3ccccn3)c2)c1 [Example 731]	> 10000
Cc1cc(C(=O)Nc2cc(Cl)cc(NS(C)(=O)=O)c2)cn1-c1ncc(C(F)(F)F)cn1 [Example 426]	226
CS(=O)(=O)Nc1cc(Cl)cc(NC(=O)c2cnn(-c3ncc(N4CCOCC4)cn3)c2)c1 [Example 394]	4230
Cc1sc(C(=O)Nc2cc(Cl)cc(NS(C)(=O)=O)c2)cc1-c1nccn1CCc1ccccc1 [Example 698]	2490
COc1cc(F)cnc1-n1cc(C(=O)Nc2cc(Cl)cc(NS(C)(=O)=O)c2)cc1C [Example 393]	133
CS(=O)(=O)Nc1cc(Cl)cc(NC(=O)c2cc(Cl)n(-c3ncc(F)cn3)c2)c1 [Example 709]	1240

Other lines, results leading:

EC50 [nM]	SMILES
1410	CS(=O)(=O)Nc1cc(Cl)cc(NC(=O)c2cc(N3CCOC3=O)cs2)c1 [Example 433]
8720	CS(=O)(=O)Nc1cc(Cl)cc(NC(=O)c2cc(C(=O)N3CCCCC3)n(-c3ccccn3)c2)c1 [Example 644]
1260	CC(C)(C)OC(=O)N1CC(n2cc(C(=O)Nc3cc(Cl)cc(NS(C)(=O)=O)c3)cc2-c2ncc(F)cn2)C1 [Example 645]
149	COCc1cc(C(=O)Nc2cc(Cl)cc(NS(C)(=O)=O)c2)cn1-c1ncccc1F [Example 682]
